Patent US6083917A, “Methods and compositions for the identification, characterization and inhibition of farnesyltransferase” (Board of Regents, The University of Texas System, priority 1992, dated 2000)
Residues, ends and D or L forms follow the SMILES beside them. No end group written: not given here. *: point of attachment. Octanoyl = CCCCCCCC(=O)*

biological target: T1, rat brain farnesyltransferase (Rattus norvegicus, UniProt Q02293+Q04631); assay: Binding of prenyl pyrophosphates to protein farnesyltransferase (gel filtration); design: Protein farnesyltransferase was purified to apparent homogeneity from rat brain homogenates; from tissue; host or cells: rat brain; details: purified enzyme
T1 sequence (Q02293 whole entry, one chain of several): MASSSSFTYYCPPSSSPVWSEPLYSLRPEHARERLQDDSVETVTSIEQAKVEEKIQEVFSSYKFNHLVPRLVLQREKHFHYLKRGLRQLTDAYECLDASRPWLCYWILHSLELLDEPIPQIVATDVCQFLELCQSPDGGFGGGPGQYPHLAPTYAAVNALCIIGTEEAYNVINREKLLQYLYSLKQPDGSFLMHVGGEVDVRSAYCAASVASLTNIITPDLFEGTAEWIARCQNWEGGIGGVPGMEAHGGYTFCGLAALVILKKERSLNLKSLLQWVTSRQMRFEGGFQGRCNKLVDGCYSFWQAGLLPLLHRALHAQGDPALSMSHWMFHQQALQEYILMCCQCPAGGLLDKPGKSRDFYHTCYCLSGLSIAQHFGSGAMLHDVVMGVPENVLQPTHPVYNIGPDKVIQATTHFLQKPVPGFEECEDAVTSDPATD
From the text: Transfer of the enzyme-bound farnesyl group to the bound p21^H-ras required Mg^2+. […] It also was not transferred to a modified p21^H-ras containing COOH-terminal leucine, a protein that was shown previously to be a good substrate for a rat brain geranylgeranyltransferase (35). The inventors conclude that the protein farnesyltransferase is a metalloenzyme that most likely contains Zn^2+ at the peptide-binding site. It thus resembles certain metallopeptidases, including carboxy-peptidase A and the angiotensin-converting enzyme. Strategies previously developed to screen for inhibitors of those enzymes will likely aid in the search for inhibitors of the protein farnesyltransferase.

Molecule | Affinity for the prenyl pyrophosphate binding site
CC(C)=CCC/C(C)=C/CC/C(C)=C/CC/C(C)=C/COP(=O)(O)OP(=O)(O)O [Geranylgeranyl pyrophosphate] | affinity equal to that of farnesyl pyrophosphate

biological target: T1, rat brain farnesyltransferase; assay: Farnesyltransferase assay: transfer of [3H]farnesyl from [3H]FPP to p21H-ras (TCA filter assay), competition by peptides; type: biochemical; design: Brains from 50 male Sprague-Dawley rats (100-150 g) were homogenized; from tissue; host or cells: rat brain (male Sprague-Dawley rats); details: Concentration giving 50% inhibition of farnesyltransferase (text, FIG. 14 / Table II), Example II; partially purified rat brain enzyme, p21H-ras acceptor
Procedure: Farnesyltransferase activity was determined by measuring the amount of ^3 H-farnesol transferred from all-trans ^3 H]farnesyl pyrophosphate ([^3 H]FPP) to p21^H-ras protein. The standard reaction mixture contained the following concentrations of components in a final volume of 25 μl: 50 mM Tris-chloride (pH 7.5), 50 μM ZnCl2, 20 mM KCl, 1 mM DTT, and 40 μM p21^H-ras. The mixture also contained 10 pmoles of [^3 H]FPP (~30,000 dpm/pmol) and 1.8-3.5 μg of partially purified farnesyltransferase (see below). After incubation for 1 hour at 37° C. in 12×75-mm borosilicate tubes, the reaction was stopped by addition of 0.5 ml of 4% SDS and then 0.5 ml of 30% trichloroacetic acid (TCA).
The tubes were vortexed and left on ice for 45-60 min, after which 2 ml of a 6% TCA/2% SDS solution were added. The mixture was filtered on a 2.5-cm glass fiber filter with a Hoefer filtration unit (FH 225). The tubes were rinsed twice with 2 ml of the same solution, and each filter was washed five times with 2 ml of 6% TCA, dried, and counted in a scintillation counter. One unit of activity is defined as the amount of enzyme that transfers 1 pmol of [^3 H]farnesol from [^3 H]FPP into acid-precipitable p21^H-ras per hour under the standard conditions.
The standard assay involved measuring the amount of [^3 H]farnesyl transferred from all-trans [^3 H]FPP to recombinant human p21^H-ras as described in Example I. Each reaction mixture contained the following concentrations of components in a final volume of 25 μl: 50 mM Tris-chloride (pH 7.5), 50 μM ZnCl2, 30 mM KCl, 1 mM DTT, 30 or 40 μM p21^H-ras, 15 pmol [^3 H]FPP (12-23,000 dpm/pmol), 4 to 7.5 μg of partially purified farnesyltransferase (Mono Q fraction, see Example I), and the indicated concentration of competitor peptide added in 3 μl of 10 mM DTT. […] This blank value was subtracted before calculating "% of control" values.
The amount of [^3 H]farnesyl transferred from all-trans-[^3 H]farnesyl pyrophosphate to recombinant p21^H-ras was measured in a filter assay as previously described (62).

IC50 [µM] | Molecule
0.15 | CC[C@H](C)[C@H](NC(=O)[C@@H](NC(=O)[C@@H](N)CS)C(C)C)C(=O)N[C@@H](CCSC)C(=O)O [CVIM] (H-CVIM-OH)
0.15 | CC[C@H](C)[C@H](NC(=O)[C@H](C)NC(=O)[C@@H](N)CS)C(=O)N[C@@H](CCSC)C(=O)O [CAIM] (H-CAIM-OH)

same assay, conditions: Table II; partially purified rat farnesyltransferase, p21H-ras acceptor; seven concentrations 0.03 to 100 μM; read-out: Concentration for 50% Inhibition

IC50 [µM] | Molecule
0.15 | CSCC[C@H](NC(=O)[C@@H](NC(=O)[C@@H](NC(=O)[C@@H](N)CS)C(C)C)C(C)C)C(=O)O [CVVM] (H-CVVM-OH)
0.2 | CC[C@H](C)[C@H](NC(=O)[C@H](CO)NC(=O)[C@@H](N)CS)C(=O)N[C@@H](CCSC)C(=O)O [CSIM] (H-CSIM-OH)
0.15 | CC[C@H](C)[C@H](NC(=O)[C@@H](NC(=O)[C@@H](N)CS)C(C)C)C(=O)N[C@@H](CCSC)C(=O)O [CVIM] (H-CVIM-OH)
0.15 | CC[C@H](C)[C@H](NC(=O)[C@H](C)NC(=O)[C@@H](N)CS)C(=O)N[C@@H](CCSC)C(=O)O [CAIM] (H-CAIM-OH)
0.15 | CC[C@H](C)[C@H](NC(=O)[C@@H](NC(=O)[C@@H](N)CS)[C@@H](C)CC)C(=O)N[C@@H](CCSC)C(=O)O [CIIM] (H-CIIM-OH)

same assay, conditions: Table III; six concentrations 0.03 to 10 μM; read-out: Concentration for 50% Inhibition of Farnesylation of p21H-ras

Molecule | IC50 [µM]
Ac-MCVFM [N-AcMCVFM] | 1.4
CSCC[C@H](NC(=O)[C@H](Cc1c[nH]c2ccccc12)NC(=O)[C@@H](NC(=O)[C@H](CS)NC(C)=O)C(C)C)C(=O)O [N-AcCVWM] (Ac-CVWM-OH) | 3.7
Ac-ECVFM [N-AcECVFM] | 2.4
Ac-DCVFM [N-AcDCVFM] | 1.9

The remaining lines, values ahead:

IC50 [µM] | Molecule
0.24 | Ac-HCVFM [N-AcHCVFM]
1.1 | KCVFM [KCVFM]
0.15 | CC[C@H](C)[C@H](NC(=O)[C@@H](NC(=O)[C@@H](N)CS)C(C)C)C(=O)N[C@@H](CCSC)C(=O)O [CVIM] (H-CVIM-OH)
0.43 | Ac-GCVFM [N-AcGCVFM]
0.2 | Ac-PCVFM [N-AcPCVFM]
0.3 | Ac-KCVFM [N-AcKCVFM]
0.11 | CSCC[C@H](NC(=O)[C@H](Cc1ccccc1)NC(=O)[C@@H](NC(=O)[C@H](CS)NC(=O)[C@H](CS)NC(C)=O)C(C)C)C(=O)O [N-AcCCVFM] (Ac-CCVFM-OH)
0.32 | CSCC[C@H](NC(=O)[C@H](Cc1c[nH]c2ccccc12)NC(=O)[C@@H](NC(=O)[C@@H](N)CS)C(C)C)C(=O)O [CVWM] (H-CVWM-OH)
0.15 | CC[C@H](C)[C@H](NC(=O)[C@@H](NC(=O)[C@H](CS)NC(C)=O)C(C)C)C(=O)N[C@@H](CCSC)C(=O)O [N-AcCVIM] (Ac-CVIM-OH)
0.44 | CSCC[C@H](NC(=O)[C@H](Cc1ccccc1)NC(=O)[C@@H](NC(=O)[C@H](CS)NC(=O)[C@@H](N)CS)C(C)C)C(=O)O [CCVFM] (H-CCVFM-OH)
0.25 | CSCC[C@H](NC(=O)[C@H](Cc1ccccc1)NC(=O)[C@@H](NC(=O)[C@H](CS)NC(C)=O)C(C)C)C(=O)O [N-AcCVFM] (Ac-CVFM-OH)
0.23 | Ac-SCVFM [N-AcSCVFM]
0.35 | CCCCCCCC(=O)N[C@@H](CS)C(=O)N[C@H](C(=O)N[C@@H](Cc1ccccc1)C(=O)N[C@@H](CCSC)C(=O)O)C(C)C [N-Octanoyl-CVFM] (Octanoyl-CVFM-OH)

same assay, conditions: substrate saturation, FIG. 2A and 2B

Molecule | Concentration that gave half-maximal reaction velocity
CC(C)=CCC/C(C)=C/CC/C(C)=C/COP(=O)(O)OP(=O)(O)O [[^3 H]farnesyl pyrophosphate, farnesyl pyrophosphate, reference compound] | approximately 0.5 μM

biological target: T1, rat brain farnesyltransferase; assay: as above; type: biochemical; design: Brains from 50 male Sprague-Dawley rats (100-150 g) were homogenized; from tissue; host or cells: rat brain (male Sprague-Dawley rats); details: Concentration giving 50% inhibition of farnesylation of p21H-ras, FIG. 23A; Mono Q fraction, 0.5 μM [3H]farnesyl pyrophosphate, 30 min at 37° C.

IC50 [µM] | Molecule
0.27 | CSCC[C@H](NC(=O)[C@H](Cc1ccccc1)NC(=O)[C@@H](NC(=O)[C@H](CS)NC(C)=O)C(C)C)C(=O)O [N-AcCVFM] (Ac-CVFM-OH)
